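96-well plates; 48 h exposure; 5 concentrations. Endpoints by linear interpolation between flanking doses. Not reached: highest tested concentration assigned. GI50: concentration for 50% inhibition of growth.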 Calls of active or inactive are those of the source. Rule as the data show it: active = GI50 up to about 1.1 µM and inactive = higher.
Assays:
Test in all cases: growth of human tumour cells (NCI), 48 h
UO-31 = system: UO-31
HCT-116 = system: HCT-116
786-0 = system: 786-0
HOP-62 = system: HOP-62
OVCAR-3 = system: OVCAR-3
MOLT-4 = system: MOLT-4
NCI-H226 = system: NCI-H226
DLD-1 = system: DLD-1
HT-29 = system: HT-29
HOP-18 = system: HOP-18
UACC-257 = system: UACC-257
M14 = system: M14
NCI-H460 = system: NCI-H460
SN12C = system: SN12C
SNB-75 = system: SNB-75
SR = system: SR
KM12 = system: KM12
NCI-H23 = system: NCI-H23
TK-10 = system: TK-10

Measured: GI50

O=Cc1ccc2c(c1I)OCO2
inactive: UO-31 > 100 µM | HCT-116 > 100 µM | 786-0 > 100 µM | HOP-62 > 100 µM | OVCAR-3 > 100 µM | MOLT-4 > 100 µM | NCI-H226 > 100 µM | DLD-1 > 100 µM | HT-29 > 100 µM | HOP-18 > 100 µM | UACC-257 > 100 µM | M14 > 100 µM | NCI-H460 > 100 µM | SN12C > 100 µM | SNB-75 > 100 µM | SR > 100 µM | KM12 > 100 µM | NCI-H23 > 100 µM | TK-10 > 100 µM

C=CSCCC(N)C(=O)O (configuration not stated)
inactive: UO-31 > 100 µM | HCT-116 > 100 µM | 786-0 > 100 µM | HOP-62 > 100 µM | OVCAR-3 > 100 µM | MOLT-4 > 100 µM | NCI-H226 > 100 µM | DLD-1 > 100 µM | HT-29 > 100 µM | HOP-18 > 100 µM | UACC-257 > 100 µM | M14 > 100 µM | NCI-H460 > 100 µM | SN12C > 100 µM | SNB-75 > 100 µM | SR > 100 µM | KM12 > 100 µM | NCI-H23 > 100 µM | TK-10 > 100 µM

CS(=O)(=O)OCCCOS(C)(=O)=O
inactive: UO-31 > 100 µM | HCT-116 > 100 µM | 786-0 > 100 µM | HOP-62 > 100 µM | OVCAR-3 > 100 µM | MOLT-4 > 100 µM | NCI-H226 > 100 µM | DLD-1 > 100 µM | HT-29 > 100 µM | HOP-18 > 100 µM | UACC-257 > 100 µM | M14 > 100 µM | NCI-H460 > 100 µM | SN12C > 100 µM | SNB-75 > 100 µM | SR > 100 µM | KM12 > 100 µM | NCI-H23 > 100 µM | TK-10 > 100 µM

Cc1ccc2sc3cc(=O)cc(C)c-3nc2c1
inactive: UO-31 26.1 µM | HCT-116 80.2 µM | 786-0 55.1 µM | HOP-62 65 µM | OVCAR-3 57.3 µM | MOLT-4 15.7 µM | NCI-H226 > 100 µM | DLD-1 76 µM | HT-29 > 100 µM | HOP-18 > 100 µM | UACC-257 74.3 µM | M14 > 100 µM | NCI-H460 > 100 µM | SN12C 60.4 µM | SNB-75 > 100 µM | SR 28.8 µM | KM12 49.7 µM | NCI-H23 45.3 µM | TK-10 > 100 µM

COc1cc2c(oc(=O)c3c4oc([Si](C)(C)C)cc4cc(OC)c23)c2cccc(OCc3ccccc3)c12
inactive: UO-31 > 63.7 µM | HCT-116 43.2 µM | 786-0 19.1 µM | HOP-62 18.8 µM | OVCAR-3 34.8 µM | MOLT-4 > 71.9 µM | NCI-H226 42.5 µM | DLD-1 55 µM | HT-29 48.9 µM | HOP-18 28 µM | UACC-257 47.6 µM | M14 26.3 µM | NCI-H460 53.7 µM | SN12C > 100 µM | SNB-75 19.7 µM | SR 37.7 µM | KM12 > 64.3 µM | NCI-H23 16.3 µM | TK-10 37.2 µM

COc1ccc(-c2cc(C(=O)Nc3cc(C(F)(F)F)cc(C(F)(F)F)c3)c3ccccc3n2)cc1
inactive: UO-31 24.5 µM | HCT-116 6.19 µM | 786-0 11.7 µM | HOP-62 12.8 µM | OVCAR-3 4.93 µM | MOLT-4 14.2 µM | NCI-H226 17.1 µM | DLD-1 11.4 µM | HT-29 9.06 µM | HOP-18 17.7 µM | UACC-257 17.6 µM | M14 10.2 µM | NCI-H460 5.42 µM | SN12C 10.6 µM | SNB-75 13.7 µM | SR 4.29 µM | KM12 13.2 µM | NCI-H23 5.9 µM | TK-10 13.9 µM

N#C/C(=C1\OC(=O)C(c2ccc(Br)cc2)=C1O)c1ccc(Br)cc1
inactive: UO-31 15.1 µM | HCT-116 17.3 µM | 786-0 14.7 µM | HOP-62 19.2 µM | OVCAR-3 14.9 µM | MOLT-4 17.2 µM | NCI-H226 18.1 µM | DLD-1 15.8 µM | HT-29 17.3 µM | HOP-18 13.5 µM | UACC-257 15.3 µM | M14 14.8 µM | NCI-H460 15.7 µM | SN12C 11.2 µM | SNB-75 17.6 µM | SR 17.9 µM | KM12 14.9 µM | NCI-H23 12.9 µM | TK-10 22.1 µM

Nc1nc(S)nc(C(=O)Nc2nccs2)c1-c1ccccc1
inactive: UO-31 > 100 µM | HCT-116 > 100 µM | 786-0 > 100 µM | HOP-62 > 100 µM | OVCAR-3 > 100 µM | MOLT-4 > 100 µM | NCI-H226 > 100 µM | DLD-1 > 100 µM | HT-29 > 100 µM | HOP-18 > 100 µM | UACC-257 > 100 µM | M14 > 100 µM | NCI-H460 > 100 µM | SN12C > 100 µM | SNB-75 > 100 µM | SR > 100 µM | KM12 > 100 µM | NCI-H23 > 100 µM | TK-10 > 100 µM
